Data on two compounds can be found in US12303530B2, “Combination therapy of cycloserine and lithium for the treatment of depression” (NEURORIVE INC, priority 2019, dated 2025).

For the assay, the system named is mice (C57BL6). The experiment in a line: forced swimming test (FST). The assay is classed as in vivo, mouse. To be noted: FST in an hour after administration, immobility time measured for the last 4 minutes of 6 minutes. The method, then:
In order to test an effect of reducing depression depending on administration of the pharmaceutical composition of the present invention, mice were subjected to a forced swimming test (FST). The FST, which is to measure a coping strategy for acute stress that inevitably occurs, is an animal behavioral experiment commonly used to measure antidepressant effects. To confirm the effect of reducing depression by combined administration of D-cycloserine (DCS) and lithium, 10 ml/kg of the preparation was administered to all groups of mice (C57BL6). […] After 1 hour, the forced swimming test (FST) that measures depression-like behavior was performed on the mice. Specifically, each group of mice was individually placed in a 3 L Pyrex beaker (13 cm in diameter, 24 cm in height), and the beakers were filled with 27.5±1.5° C. of water up to a depth of 9 cm. All mice were forced to swim for 6 minutes, and immobility time was measured for the last 4 minutes of the experiment. The immobility time is defined as the […] time taken while the mouse is floating without struggling or taking only the movement required for keeping the mouse's head above the water surface.

For `N[C@@H]1CONC1=O` [DCS, D-cycloserine], the “immobility in forced swimming test, compared to the control group administered with the vehicle” value is “did not show statistical significance”.

`O=C([O-])[O-].[Li+].[Li+]` [Li2CO3, Lithium carbonate]: the “immobility in forced swimming test, compared to the control group administered with the vehicle” value is on record as “did not show statistical significance”.
